Experimental data: the supplement of paper PMC11061612

Tests used:
Experiment in all cases: combination Emax (second highest fraction inhibited in the dose matrix, 72 h); higher = more inhibition; extreme values may be limits of the assay
[1] = system: CCRF-CEM (T-Lymphoblastic Leukemia)
Method in brief: (§1)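 After 24 hours at 37°C and 5% CO2 in 1536-well plates, cells in DMEM/F12 or RPMI plus 10% FBS received two-drug dose matrices for 72 hours. Viability came from CellTiter-Glo 2.0 luminescence and was scaled as inhibition, anchored at 0 by vehicle wells and at 1 by blank wells. Combination Emax is taken as the second-highest inhibition in the matrix, and Bliss excess as the observed combination effect less EA + EB − EA·EB, with EA and EB the single-agent effects.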

[2] = system: HCC1806 (Breast Carcinoma)
Method in brief: as §1

[3] = system: HCC-78 (Lung Adenocarcinoma)
Method in brief: as §1

ES4 (Ewing's Sarcoma) = system: ES4 (Ewing's Sarcoma)
Method in brief: as §1

[4] = system: KP-1N (Pancreatic Carcinoma)
Method in brief: as §1

NB10 (Neuroblastoma) = system: NB10 (Neuroblastoma)
Method in brief: as §1

[5] = system: NCI-H2085 (Non-Small Cell Lung Carcinoma)
Method in brief: as §1

[6] = system: Daoy (Other Solid Carcinomas)
Method in brief: as §1

[7] = system: Ramos-2G6-4C10 (Burkitt's Lymphoma)
Method in brief: as §1

[8] = system: RC-K8 (B-Cell Non-Hodgkin's Lymphoma)
Method in brief: as §1

[9] = system: TE-15 (Esophageal Squamous Cell Carcinoma)
Method in brief: as §1

T98G (Glioblastoma) = system: T98G (Glioblastoma)
Method in brief: as §1

[10] = system: TCCSUP (Bladder Carcinoma)
Method in brief: as §1

[11] = system: DoTc2-4510 (Cervical Carcinoma)
Method in brief: as §1

[12] = system: Calu-3 (Lung Adenocarcinoma)
Method in brief: as §1

[13] = system: LU-135 (Small Cell Lung Carcinoma)
Method in brief: as §1

[14] = system: TE-9 (Esophageal Squamous Cell Carcinoma)
Method in brief: as §1

42-MG-BA (Glioblastoma) = system: 42-MG-BA (Glioblastoma)
Method in brief: as §1

[15] = system: ME-1 (Acute Myeloid Leukemia)
Method in brief: as §1

[16] = system: COLO-205 (Colorectal Carcinoma)
Method in brief: as §1

Compound | combination Emax [1] | combination Emax [2] | combination Emax [3] | combination Emax (ES4 (Ewing's Sarcoma)) | combination Emax [4] | combination Emax (NB10 (Neuroblastoma)) | combination Emax [5] | combination Emax [6] | combination Emax [7] | combination Emax [8] | combination Emax [9] | combination Emax (T98G (Glioblastoma)) | combination Emax [10] | combination Emax [11] | combination Emax [12] | combination Emax [13] | combination Emax [14] | combination Emax (42-MG-BA (Glioblastoma)) | combination Emax [15] | combination Emax [16]
CC(=O)Nc1cccc(-n2c(=O)n(C3CC3)c(=O)c3c(Nc4ccc(I)cc4F)n(C)c(=O)c(C)c32)c1 [Trametinib] + Cc1nc(-c2cn3c(n2)-c2ccc(-c4cnn(C(C)(C)C(N)=O)c4)cc2OCC3)n(C(C)C)n1 [Taselisib] (first compound max 1 µM, 7x7, partner max 10 µM) | 0.517 | 0.798 | 0.712 | 0.715 | 0.644 | 0.921 | 0.52 | 0.622 | 0.121 | 0.512 | 0.664 | 0.855 | 0.65 | 0.841 | 0.972 | 0.514 | 0.824 | 0.971 | 0.381 | 0.946
CC1(C)CCC(CN2CCN(c3ccc(C(=O)NS(=O)(=O)c4ccc(NCC5CCOCC5)c([N+](=O)[O-])c4)c(Oc4cnc5[nH]ccc5c4)c3)CC2)=C(c2ccc(Cl)cc2)C1 [Venetoclax] + C1CN(CCC1(C(=O)N[C@@H](CCO)C2=CC=C(C=C2)Cl)N)C3=NC=NC4=C3C=CN4 [Capivasertib] (first compound max 1 µM, 7x7, partner max 3 µM) | 0.957 | 0.231 | 0.276 | 0.155 | 0.172 | 0.139 | 0.329 | 0.21 | 0.173 | 0.333 | 0.401 | 0.326 | 0.189 | 0.245 | 0.174 | 0.317 | 0.192 | 0.518 | 1 | 0.237
CC1(C)CCC(CN2CCN(c3ccc(C(=O)NS(=O)(=O)c4ccc(NCC5CCOCC5)c([N+](=O)[O-])c4)c(Oc4cnc5[nH]ccc5c4)c3)CC2)=C(c2ccc(Cl)cc2)C1 [Venetoclax] + C=CCn1c(=O)c2cnc(Nc3ccc(N4CCN(C)CC4)cc3)nc2n1-c1cccc(C(C)(C)O)n1 [AZD1775] (first compound max 1 µM, partner max 1 µM) | 1 | 0.912 | 0.701 | 0.437 | 0.44 | 0.865 | 0.398 | 0.873 | 0.984 | 0.815 | 0.796 | 0.889 | 0.475 | 0.633 | 0.218 | 0.688 | 0.691 | 0.287 | 1 | 0.606
CC1(C)CCC(CN2CCN(c3ccc(C(=O)NS(=O)(=O)c4ccc(NCC5CCOCC5)c([N+](=O)[O-])c4)c(Oc4cnc5[nH]ccc5c4)c3)CC2)=C(c2ccc(Cl)cc2)C1 [Venetoclax] + CCN(CCO)CCCOc1ccc2c(Nc3cc(CC(=O)Nc4cccc(F)c4)[nH]n3)ncnc2c1 [AZD2811] (first compound max 1 µM, 7x7, partner max 1 µM) | 1 | 0.212 | 0.225 | 0.164 | 0.162 | 0.5 | 0.46 | 0.439 | 0.269 | 0.423 | 0.441 | 0.394 | 0.311 | 0.235 | 0.175 | 0.899 | 0.154 | 0.534 | 1 | 0.713
CC1(C)CCC(CN2CCN(c3ccc(C(=O)NS(=O)(=O)c4ccc(NCC5CCOCC5)c([N+](=O)[O-])c4)c(Oc4cnc5[nH]ccc5c4)c3)CC2)=C(c2ccc(Cl)cc2)C1 [Venetoclax] + CN(C)CCCOc1ccc(-c2ccc3ncc4c(c3c2)n(C2CCOCC2)c(=O)n4C)cn1 [AZD0156] (first compound max 1 µM, 7x7, partner max 1 µM) | 0.931 | 0.139 | 0.181 | 0.173 | 0.138 | 0.538 | 0.186 | 0.168 | 0.627 | 0.316 | 0.451 | 0.332 | 0.189 | 0.268 | 0.121 | 0.274 | 0.141 | 0.367 | 1 | 0.237
CC1(C)CCC(CN2CCN(c3ccc(C(=O)NS(=O)(=O)c4ccc(NCC5CCOCC5)c([N+](=O)[O-])c4)c(Oc4cnc5[nH]ccc5c4)c3)CC2)=C(c2ccc(Cl)cc2)C1 [Venetoclax] + COc1cc(Nc2ncc3c(n2)-c2ccc(Cl)cc2C(c2c(F)cccc2OC)=NC3)ccc1C(=O)O [Alisertib] (first compound max 1 µM, 7x7, partner max 10 µM) | 0.992 | 0.278 | 0.475 | 0.233 | 0.357 | 0.995 | 0.597 | 0.932 | 0.474 | 0.585 | 0.686 | 0.556 | 0.475 | 0.421 | 0.171 | 0.797 | 0.369 | 0.59 | 1 | 0.693
